According to patent US20060041017A1, “Synergistic conjugated linoleic acid (CLA) and carnitine combination” (priority 2004, published 2006):

Experiments:
Format in all cases: in vivo
[1] = test system: carnitine palmitoyl transferase (CPT 1); assay: CPT I activity in brown adipose tissue after two weeks of daily oral gavage; conditions: adult rats, oral gavage daily for two weeks; for CPT I activity in brown adipose tissue (low dose) % Control: control = corn oil; for CPT I activity in brown adipose tissue (standard dose) % Control: control = water; for CPT I activity in brown adipose tissue (low dose) Mean ± SEM: L-Carnitine 68.25 mg, CLA 91 mg, Carnitine+CLA 68.25 mg+91 mg; for CPT I activity in brown adipose tissue (standard dose) Mean ± SEM: L-Carnitine 273 mg, CLA 354 mg, Carnitine+CLA 273 mg+364 mg
Source text: Brown adipose tissue is an important site for long-term storage of fat in the body and for the rapid metabolism of fat for thermogenesis. CPT I is a key enzyme in this process and it has an essential role In the metabolism of fats by transporting long chain fatty acids into the Inner mitochondria for oxidation. The first experiment involved the following groups of adult rats. The treatment involved administration of the following products daily by oral gavage for two weeks, the control group receiving water. Carnitine was administered as the fumarate salt. • 1. Control (water)−(1 mL) • 2. L-Carnitine−273 mg (in 1 mL water) • 3. CLA−354 mg (In 1 mL corn oil) • 4. Carnitine+CLA−273 mg+364 mg (in 1 mL corn oil) At the end of two weeks, the animals were euthanized and brown adipose tissue was excised for CPT I assay according to Rahman et al(2001). […] Corn Oil−(1 mL) • 2. L-Carnitine−68.25 mg (in 1 mL water) • 3. CLA−91 mg (in 1 mL corn oil) • 4. Carnitine+CLA−68.25 mg+91 mg (in 1 mL corn oil)

heart mitochondrial CoQ = assay: Heart mitochondrial CoQ levels (HPLC) after 2 weeks of supplementation; conditions: Wistar rats; for Heart mitochondrial CoQ content (CoQ10-OX+CoQ9-OX) in comparison with control group: 2 weeks, result in words; for HEART mitochondria CoQ9-OX / HEART mitochondria CoQ10 + CoQ9 / HEART mitochondria CoQ10-OX: oral gavage daily 2 weeks, 91 mg CLA, 68,25 mg L-carnitine fumarate, means ± s.e.m.
Procedure: (§1) Methods: Four groups of 3-months old Wistar rats were given the following treatments by oral gavage daily for 2 weeks: (1) C (control)−1 ml corn oil, (2) CLA−91 mg CLA (in corn oil), (3) CAR−68,25 mg L-carnitine fumarate (in corn oil), (4) CLA+CAR−91 mg CLA with 68,25 mg L-carnitine fumarate (in corn oil). Body weight and body fat weight (corpus adiposum nuchae, corpus adiposum, perirenal tissue, omentum majus) were measured. CoQ 10 and CoQ9 in isolated mitochondria were estimated by HPLC method. For evaluation of parameters of oxidative phosphorylation were used Gilson oxygraph records of respiratory chain by using Clark oxygen electrode (S3— ADP stimulated respiration, S4— basal respiration, OPR—rate of ATP production). A spectrophotometric assay was used for CPT activity.

[2] = test system: Carnitine palmitoytransferase (CPT); assay: CPT activity in heart mitochondria (spectrophotometric assay); conditions: Wistar rats, oral gavage daily 2 weeks; 91 mg CLA, 68,25 mg L-carnitine fumarate; means ± s.e.m.
Procedure: as §1

kidney mitochondrial CoQ = assay: Kidney mitochondrial CoQ levels (HPLC) after 2 weeks of supplementation; conditions: Wistar rats; for Kidney mitochondrial CoQ content (CoQ10-OX+CoQ9-OX) in comparison with control group: 2 weeks, result in words; for KIDNEY mitochondria CoQ9-OX / KIDNEY mitochondria CoQ10 + CoQ9 / KIDNEY mitochondria CoQ10-OX: oral gavage daily 2 weeks, 91 mg CLA, 68,25 mg L-carnitine fumarate
Procedure: as §1

[3] = test system: Carnitine palmitoytransferase (CPT); assay: CPT activity in kidney mitochondria (spectrophotometric assay); conditions: Wistar rats, oral gavage daily 2 weeks; 91 mg CLA, 68,25 mg L-carnitine fumarate
Procedure: as §1

Row | Compound | CPT I activity in brown adipose tissue (low dose) % Control [1] | CPT I activity in brown adipose tissue (standard dose) % Control [1] | CPT I activity in brown adipose tissue (low dose) Mean ± SEM [1] | CPT I activity in brown adipose tissue (standard dose) Mean ± SEM [1] | Heart mitochondrial CoQ content (CoQ10-OX+CoQ9-OX) in comparison with control group (heart mitochondrial CoQ) | HEART mitochondria CoQ9-OX (heart mitochondrial CoQ) | HEART mitochondria CoQ10 + CoQ9 (heart mitochondrial CoQ) | HEART mitochondria CoQ10-OX (heart mitochondrial CoQ) | HEART mitochondria CPT [2] | Kidney mitochondrial CoQ content (CoQ10-OX+CoQ9-OX) in comparison with control group (kidney mitochondrial CoQ) | KIDNEY mitochondria CoQ9-OX (kidney mitochondrial CoQ) | KIDNEY mitochondria CoQ10 + CoQ9 (kidney mitochondrial CoQ) | KIDNEY mitochondria CoQ10-OX (kidney mitochondrial CoQ) | KIDNEY mitochondria CPT [3]
1 | octadecadienoic acid [CLA] | 121.53 % Control | 129.82 % Control | 27.840 ± 1.259 nmoles/mg protein/min | 29.530 + 1.590 nmoles/mg protein/min | significantly stimulated | 3.379 ± 0.261 nmol/mg prot. | 3.722 ± 0.298 nmol/mg prot. | 0.343 ± 0.041 nmol/mg prot. | 15.52 ± 1.080 nmol/mg rot./min | significantly stimulated | 1.162 ± 0.102 nmol/mg prot. | 1.284 ± 0.105 nmol/mg prot. | 0.122 ± 0.005 nmol/mg prot. | 6.517 ± 0.351 nmol/mg rot./min
2 | C[N+](C)(C)CC(O)CC(=O)[O-] (stereo not shown) [Carnitine, 3-hydroxy-4-N,N, N-trlmethylaminobutyrate] | 125 % Control | 117.85 % Control | 27.024 ± 2.074 nmoles/mg protein/min | 26.808 ± 2.373 nmoles/mg protein/min | significantly stimulated | 4.692 ± 0.168 nmol/mg prot. | 5.147 ± 0.181 nmol/mg prot. | 0.452 ± 0.021 nmol/mg prot. | 12.36 ± 1.759 nmol/mg rot./min | significantly stimulated | 1.290 ± 0.119 nmol/mg prot. | 1.471 ± 0.128 nmol/mg prot. | 0.138 ± 0.012 nmol/mg prot. | 2.974 ± 0.466 nmol/mg rot./min
